Results as given in patent publication US20100329971A1, “NOVEL HYDROXY RADICAL GENERATION METHOD, AND ANTI-VIRAL MATERIAL UTILIZING HYDROXYL RADICAL GENERATED BY THE METHOD” (MOCHIGASE CO., LTD., priority 2008, published 2010).
Marks after values point to notes of the source that are not given here.

Assays:
[1] = Amount of generated hydroxyl radicals under shaded condition or room light, HPF reagent (Example 14); conditions: measured 1 hour after preparation
[2] = Quantification of hydroxyl radical production by HPF fluorescence intensity (Examples 13 and 18); conditions: HPF 5 μM, room temperature 15 minutes; for Amount of generated radicals: 0.1 M phosphoric acid buffer, fluorescence intensity
[3] = Amount of generated hydroxyl radicals using metal oxides and hydroxides, HPF reagent (Example 15); conditions: left shaded for 1 hour; 100% = 0.1% titanium oxide irradiated with room light 30 minutes
[4] = Duration of hydroxyl radical generation, HPF reagent (Example 16); conditions: shaded, 100% = 0.1% titanium oxide irradiated with room light 30 minutes
[5] = Amount of generated hydroxyl radicals using combinations of calcium hydroxide, magnesium oxide and magnesium hydroxide (Example 17); conditions: left shaded for 72 hours; total 1% by weight; only calcium hydroxide = 100%
Procedure: Specifically, each reagent was mixed as described below to prepare a specimen to be measured using a suspension of a metal oxide and/or a hydroxide in a manner similar to Example 15. HPF reagent (Daiichi Pure Chemicals Co., Ltd.): 0.1 μL 0.5 M phosphoric acid buffer (pH 7.0): 20 μL Pure water: 49.9 μL Each suspension: 30 μL Table 7 indicates the concentrations and amounts of metal oxide and/or hydroxide in each specimen to be measured. [table]

spike proteins = spike proteins (Severe acute respiratory syndrome coronavirus, UniProt P59594)
[6] = Shaded, 100% = 0.1% titanium oxide irradiated 30 minutes

## [O]=[Ti]=[O] [0.1% titanium oxide, titanium oxide]
[1]; Irradiated with room light for 30 minutes then shaded, this value assumed to be 100%
  Amount of generated hydroxyl radicals: 100^1) %
[1]; [6]
  Amount of generated hydroxyl radicals: 3.92%

## [Ca+2].[OH-].[OH-] [Calcium hydroxide (1%), calcium hydroxide]
[2]
  Amount of generated radicals: 6236
[3]
  Amount of generated hydroxyl radicals (% of control): 14.27 % of control
[4]
  Amount of generated hydroxyl radicals (% of control) After 1 hour: 14.27 % of control
  Amount of generated hydroxyl radicals (% of control) After 12 hours: 47.49 % of control
[5]
  Amount of generated hydroxyl radicals % of activity in Ca(OH)2: 100.00 % of activity in Ca(OH)2

## [Mg+2].[OH-].[OH-] [Magnesium hydroxide (1%), magnesium hydroxide]
[2]
  Amount of generated radicals: 11907
[1]; [6]
  Amount of generated hydroxyl radicals: 28.33%
[3]
  Amount of generated hydroxyl radicals (% of control): 26.17 % of control
[4]
  Amount of generated hydroxyl radicals (% of control) After 1 hour: 26.17 % of control
  Amount of generated hydroxyl radicals (% of control) After 12 hours: 62.18 % of control
[5]
  Amount of generated hydroxyl radicals % of activity in Ca(OH)2: 144.14 % of activity in Ca(OH)2

## [O]=[Mg] [Magnesium oxide (1%), magnesium oxide, reference compound]
[2]
  Amount of generated radicals: 3918
[3]
  Amount of generated hydroxyl radicals (% of control): 15.07 % of control
[4]
  Amount of generated hydroxyl radicals (% of control) After 1 hour: 15.07 % of control
  Amount of generated hydroxyl radicals (% of control) After 12 hours: 34.15 % of control
[5]
  Amount of generated hydroxyl radicals % of activity in Ca(OH)2: 77.84 % of activity in Ca(OH)2

## [K+].[OH-] [Potassium hydroxide (1%), potassium hydroxide]
[3]
  Amount of generated hydroxyl radicals (% of control): 2.88 % of control

## [Na+].[OH-] [Sodium hydroxide (1%), sodium hydroxide]
[3]
  Amount of generated hydroxyl radicals (% of control): 3.29 % of control

## O=C([O-])c1ccccc1O.[Na+] [sodium salicylate]
Spike proteins
  bands corresponding to spike proteins, electrophoresis without a reducing agent: recovery of bands corresponding to spike proteins was confirmed

## [Mg+2].[OH-].[OH-] [specimen No. 7, magnesium hydroxide]
[2]; comparison of specimens Nos. 7, 8 and 3
  amounts of generated radicals (rank order): specimen No. 7>specimen No. 8>specimen No. 3
